Conditions: Liquid

CCCCCCn1cc[n+](C)c1.F[B-](F)(F)F [1-hexyl-3-methylimidazolium tetrafluoroborate]
Conditions | mass density [kg/m3]
293.15 K, 101.33 kPa, Vibrating tube method | 1148.5
313.15 K, 101.33 kPa, Vibrating tube method | 1134.7
313.3 K, 10000 kPa, Bellows volumetry | 1139
313.3 K, 20000 kPa, Bellows volumetry | 1144
313.3 K, 30000 kPa, Bellows volumetry | 1149
313.3 K, 40000 kPa, Bellows volumetry | 1154
313.3 K, 50000 kPa, Bellows volumetry | 1158
313.3 K, 60000 kPa, Bellows volumetry | 1162
313.3 K, 70000 kPa, Bellows volumetry | 1167
313.3 K, 80000 kPa, Bellows volumetry | 1171
313.3 K, 90000 kPa, Bellows volumetry | 1174
313.3 K, 100000 kPa, Bellows volumetry | 1178
313.3 K, 110000 kPa, Bellows volumetry | 1182
313.3 K, 120000 kPa, Bellows volumetry | 1186
313.3 K, 130000 kPa, Bellows volumetry | 1189
313.3 K, 140000 kPa, Bellows volumetry | 1193
313.3 K, 150000 kPa, Bellows volumetry | 1196
313.3 K, 160000 kPa, Bellows volumetry | 1199
313.3 K, 170000 kPa, Bellows volumetry | 1202
313.3 K, 180000 kPa, Bellows volumetry | 1206
313.3 K, 190000 kPa, Bellows volumetry | 1209
313.3 K, 200000 kPa, Bellows volumetry | 1212
332.5 K, 10000 kPa, Bellows volumetry | 1126
332.5 K, 20000 kPa, Bellows volumetry | 1131
332.5 K, 30000 kPa, Bellows volumetry | 1136
332.5 K, 40000 kPa, Bellows volumetry | 1141
332.5 K, 50000 kPa, Bellows volumetry | 1146
332.5 K, 60000 kPa, Bellows volumetry | 1150
332.5 K, 70000 kPa, Bellows volumetry | 1154
332.5 K, 80000 kPa, Bellows volumetry | 1159
332.5 K, 90000 kPa, Bellows volumetry | 1163
332.5 K, 100000 kPa, Bellows volumetry | 1167
332.5 K, 110000 kPa, Bellows volumetry | 1170
332.5 K, 120000 kPa, Bellows volumetry | 1174
332.5 K, 130000 kPa, Bellows volumetry | 1178
332.5 K, 140000 kPa, Bellows volumetry | 1181
332.5 K, 150000 kPa, Bellows volumetry | 1185
332.5 K, 160000 kPa, Bellows volumetry | 1188
332.5 K, 170000 kPa, Bellows volumetry | 1192
332.5 K, 180000 kPa, Bellows volumetry | 1195
332.5 K, 190000 kPa, Bellows volumetry | 1198
332.5 K, 200000 kPa, Bellows volumetry | 1201
333.15 K, 101.33 kPa, Vibrating tube method | 1121
352.6 K, 10000 kPa, Bellows volumetry | 1113
352.6 K, 20000 kPa, Bellows volumetry | 1118
352.6 K, 30000 kPa, Bellows volumetry | 1123
352.6 K, 40000 kPa, Bellows volumetry | 1128
352.6 K, 50000 kPa, Bellows volumetry | 1133
352.6 K, 60000 kPa, Bellows volumetry | 1138
352.6 K, 70000 kPa, Bellows volumetry | 1142
352.6 K, 80000 kPa, Bellows volumetry | 1147
352.6 K, 90000 kPa, Bellows volumetry | 1151
352.6 K, 100000 kPa, Bellows volumetry | 1155
352.6 K, 110000 kPa, Bellows volumetry | 1159
352.6 K, 120000 kPa, Bellows volumetry | 1163
352.6 K, 130000 kPa, Bellows volumetry | 1167
352.6 K, 140000 kPa, Bellows volumetry | 1170
352.6 K, 150000 kPa, Bellows volumetry | 1174
352.6 K, 160000 kPa, Bellows volumetry | 1177
352.6 K, 170000 kPa, Bellows volumetry | 1181
352.6 K, 180000 kPa, Bellows volumetry | 1184
352.6 K, 190000 kPa, Bellows volumetry | 1187
352.6 K, 200000 kPa, Bellows volumetry | 1191
353.15 K, 101.33 kPa, Vibrating tube method | 1107.6
372.7 K, 10000 kPa, Bellows volumetry | 1099
372.7 K, 20000 kPa, Bellows volumetry | 1105
372.7 K, 30000 kPa, Bellows volumetry | 1111
372.7 K, 40000 kPa, Bellows volumetry | 1116
372.7 K, 50000 kPa, Bellows volumetry | 1121
372.7 K, 60000 kPa, Bellows volumetry | 1126
372.7 K, 70000 kPa, Bellows volumetry | 1131
372.7 K, 80000 kPa, Bellows volumetry | 1135
372.7 K, 90000 kPa, Bellows volumetry | 1139
372.7 K, 100000 kPa, Bellows volumetry | 1144
372.7 K, 110000 kPa, Bellows volumetry | 1148
372.7 K, 120000 kPa, Bellows volumetry | 1152
372.7 K, 130000 kPa, Bellows volumetry | 1156
372.7 K, 140000 kPa, Bellows volumetry | 1160
372.7 K, 150000 kPa, Bellows volumetry | 1163
372.7 K, 160000 kPa, Bellows volumetry | 1167
372.7 K, 170000 kPa, Bellows volumetry | 1170
372.7 K, 180000 kPa, Bellows volumetry | 1174
372.7 K, 190000 kPa, Bellows volumetry | 1177
372.7 K, 200000 kPa, Bellows volumetry | 1180
393 K, 10000 kPa, Bellows volumetry | 1087
393 K, 20000 kPa, Bellows volumetry | 1093
393 K, 30000 kPa, Bellows volumetry | 1098
393 K, 40000 kPa, Bellows volumetry | 1104
393 K, 50000 kPa, Bellows volumetry | 1109
393 K, 60000 kPa, Bellows volumetry | 1114
393 K, 70000 kPa, Bellows volumetry | 1119
393 K, 80000 kPa, Bellows volumetry | 1124
393 K, 90000 kPa, Bellows volumetry | 1128
393 K, 100000 kPa, Bellows volumetry | 1133
393 K, 110000 kPa, Bellows volumetry | 1137
393 K, 120000 kPa, Bellows volumetry | 1141
393 K, 130000 kPa, Bellows volumetry | 1145
393 K, 140000 kPa, Bellows volumetry | 1149
393 K, 150000 kPa, Bellows volumetry | 1153
393 K, 160000 kPa, Bellows volumetry | 1157
393 K, 170000 kPa, Bellows volumetry | 1160
393 K, 180000 kPa, Bellows volumetry | 1164
393 K, 190000 kPa, Bellows volumetry | 1167
393 K, 200000 kPa, Bellows volumetry | 1171
413 K, 10000 kPa, Bellows volumetry | 1074
413 K, 20000 kPa, Bellows volumetry | 1080
413 K, 30000 kPa, Bellows volumetry | 1086
413 K, 40000 kPa, Bellows volumetry | 1092
413 K, 50000 kPa, Bellows volumetry | 1098
413 K, 60000 kPa, Bellows volumetry | 1103
413 K, 70000 kPa, Bellows volumetry | 1108
413 K, 80000 kPa, Bellows volumetry | 1113
413 K, 90000 kPa, Bellows volumetry | 1118
413 K, 100000 kPa, Bellows volumetry | 1122
413 K, 110000 kPa, Bellows volumetry | 1126
413 K, 120000 kPa, Bellows volumetry | 1131
413 K, 130000 kPa, Bellows volumetry | 1135
413 K, 140000 kPa, Bellows volumetry | 1139
413 K, 150000 kPa, Bellows volumetry | 1143
413 K, 160000 kPa, Bellows volumetry | 1147
413 K, 170000 kPa, Bellows volumetry | 1150
413 K, 180000 kPa, Bellows volumetry | 1154
413 K, 190000 kPa, Bellows volumetry | 1158
413 K, 200000 kPa, Bellows volumetry | 1161
432.9 K, 10000 kPa, Bellows volumetry | 1062
432.9 K, 20000 kPa, Bellows volumetry | 1068
432.9 K, 30000 kPa, Bellows volumetry | 1075
432.9 K, 40000 kPa, Bellows volumetry | 1081
432.9 K, 50000 kPa, Bellows volumetry | 1086
432.9 K, 60000 kPa, Bellows volumetry | 1092
432.9 K, 70000 kPa, Bellows volumetry | 1097
432.9 K, 80000 kPa, Bellows volumetry | 1102
432.9 K, 90000 kPa, Bellows volumetry | 1107
432.9 K, 100000 kPa, Bellows volumetry | 1112
432.9 K, 110000 kPa, Bellows volumetry | 1116
432.9 K, 120000 kPa, Bellows volumetry | 1121
432.9 K, 130000 kPa, Bellows volumetry | 1125
432.9 K, 140000 kPa, Bellows volumetry | 1129
432.9 K, 150000 kPa, Bellows volumetry | 1133
432.9 K, 160000 kPa, Bellows volumetry | 1137
432.9 K, 170000 kPa, Bellows volumetry | 1141
432.9 K, 180000 kPa, Bellows volumetry | 1145
432.9 K, 190000 kPa, Bellows volumetry | 1148
432.9 K, 200000 kPa, Bellows volumetry | 1152
452.6 K, 10000 kPa, Bellows volumetry | 1049
452.6 K, 20000 kPa, Bellows volumetry | 1056
452.6 K, 30000 kPa, Bellows volumetry | 1063
452.6 K, 40000 kPa, Bellows volumetry | 1069
452.6 K, 50000 kPa, Bellows volumetry | 1075
452.6 K, 60000 kPa, Bellows volumetry | 1081
452.6 K, 70000 kPa, Bellows volumetry | 1086
452.6 K, 80000 kPa, Bellows volumetry | 1092
452.6 K, 90000 kPa, Bellows volumetry | 1097
452.6 K, 100000 kPa, Bellows volumetry | 1101
452.6 K, 110000 kPa, Bellows volumetry | 1106
452.6 K, 120000 kPa, Bellows volumetry | 1111
452.6 K, 130000 kPa, Bellows volumetry | 1115
452.6 K, 140000 kPa, Bellows volumetry | 1119
452.6 K, 150000 kPa, Bellows volumetry | 1123
452.6 K, 160000 kPa, Bellows volumetry | 1128
452.6 K, 170000 kPa, Bellows volumetry | 1131
452.6 K, 180000 kPa, Bellows volumetry | 1135
452.6 K, 190000 kPa, Bellows volumetry | 1139
452.6 K, 200000 kPa, Bellows volumetry | 1143
472.5 K, 10000 kPa, Bellows volumetry | 1037
472.5 K, 20000 kPa, Bellows volumetry | 1045
472.5 K, 30000 kPa, Bellows volumetry | 1052
472.5 K, 40000 kPa, Bellows volumetry | 1058
472.5 K, 50000 kPa, Bellows volumetry | 1064
472.5 K, 60000 kPa, Bellows volumetry | 1070
472.5 K, 70000 kPa, Bellows volumetry | 1076
472.5 K, 80000 kPa, Bellows volumetry | 1081
472.5 K, 90000 kPa, Bellows volumetry | 1087
472.5 K, 100000 kPa, Bellows volumetry | 1092
472.5 K, 110000 kPa, Bellows volumetry | 1096
472.5 K, 120000 kPa, Bellows volumetry | 1101
472.5 K, 130000 kPa, Bellows volumetry | 1105
472.5 K, 140000 kPa, Bellows volumetry | 1110
472.5 K, 150000 kPa, Bellows volumetry | 1114
472.5 K, 160000 kPa, Bellows volumetry | 1118
472.5 K, 170000 kPa, Bellows volumetry | 1122
472.5 K, 180000 kPa, Bellows volumetry | 1126
472.5 K, 190000 kPa, Bellows volumetry | 1130
472.5 K, 200000 kPa, Bellows volumetry | 1134
